Laboratory results: paper PMC6449286, “Influence of Multidrug Resistance-Associated Proteins on the Excretion of the ABCC1 Imaging Probe 6-Bromo-7-[^11C]Methylpurine in Mice” (Molecular Imaging and Biology, 2018)
Marks after values point to notes of the source that are not given here. Each block holds one compound with its values, some of them ahead of it.

Experiments:
[1] = design: method as in PMID 1976057; conditions: rats ref 24; cited from earlier work
[2] = Assessment of glutathione conjugation by radio-TLC in mouse tissues and fluids; conditions: for Percentage of S-(6-(7-[^11C]methylpurinyl))glutathione in bile / Percentage of S-(6-(7-[^11C]methylpurinyl))glutathione in brain / Percentage of S-(6-(7-[^11C]methylpurinyl))glutathione in kidney / Percentage of S-(6-(7-[^11C]methylpurinyl))glutathione in liver / Percentage of S-(6-(7-[^11C]methylpurinyl))glutathione in urine: 15 min after i.v. injection; for Percentage of S-(6-(7-[^11C]methylpurinyl))glutathione in plasma: 15 min after i.v. injection of 6-bromo-7-[^11C]methylpurine, n=3
Method: Assessment of Glutathione Conjugation
6-Bromo-7-[11C]methylpurine (26 ± 8 MBq in a volume of 0.1 ml, 0.15 ± 0.06 nmol) was administered i.v. to wild-type and Abcc1(-/-) mice (n = 3 per group) under isoflurane anesthesia.
After a period of 15 min, blood was collected from the retro-bulbar plexus and animals were euthanized. Brain, liver, kidneys, urine and bile were collected. Blood was centrifuged to obtain plasma and proteins were precipitated by the addition of acetonitrile (1 µl per µl plasma). Liver, kidneys and brain were homogenized using an Ultra Turrax T10 (IKA Laboratory Equipment, Staufen, Germany) and proteins were precipitated with acetonitrile (1 ml per liver, 0.2 ml per kidneys/brain). Urine and bile were diluted with acetonitrile (1 µl per µl urine and bile). All solutions were vortexed and then centrifuged (12,000 x g, 1 min, 21°C). Each supernatant (plasma, brain, liver, kidney, urine, bile, 5 µl each) and diluted radiotracer solution as reference were spotted on silica gel 60F 254 nm TLC plates (10 x 20 cm; Merck, Darmstadt, Germany) and plates were developed in water/acetonitrile/acetic acid (92/8/1, v/v/v). Detection was performed by placing the TLC plates on multisensitive phosphor screens (Perkin-Elmer). […]

Abcc1 [3] = target: T1, Abcc1 (Mus musculus, UniProt O35379); assay: 6-bromo-7-[^11C]methylpurine PET in Abcc1 knockout mice; type: in vivo
T1 construct: from tissue; host or cells: living C57BL/6J mice (wild-type versus Abcc1 knockout), obtained from the University of Oslo
T1 sequence (O35379 whole entry): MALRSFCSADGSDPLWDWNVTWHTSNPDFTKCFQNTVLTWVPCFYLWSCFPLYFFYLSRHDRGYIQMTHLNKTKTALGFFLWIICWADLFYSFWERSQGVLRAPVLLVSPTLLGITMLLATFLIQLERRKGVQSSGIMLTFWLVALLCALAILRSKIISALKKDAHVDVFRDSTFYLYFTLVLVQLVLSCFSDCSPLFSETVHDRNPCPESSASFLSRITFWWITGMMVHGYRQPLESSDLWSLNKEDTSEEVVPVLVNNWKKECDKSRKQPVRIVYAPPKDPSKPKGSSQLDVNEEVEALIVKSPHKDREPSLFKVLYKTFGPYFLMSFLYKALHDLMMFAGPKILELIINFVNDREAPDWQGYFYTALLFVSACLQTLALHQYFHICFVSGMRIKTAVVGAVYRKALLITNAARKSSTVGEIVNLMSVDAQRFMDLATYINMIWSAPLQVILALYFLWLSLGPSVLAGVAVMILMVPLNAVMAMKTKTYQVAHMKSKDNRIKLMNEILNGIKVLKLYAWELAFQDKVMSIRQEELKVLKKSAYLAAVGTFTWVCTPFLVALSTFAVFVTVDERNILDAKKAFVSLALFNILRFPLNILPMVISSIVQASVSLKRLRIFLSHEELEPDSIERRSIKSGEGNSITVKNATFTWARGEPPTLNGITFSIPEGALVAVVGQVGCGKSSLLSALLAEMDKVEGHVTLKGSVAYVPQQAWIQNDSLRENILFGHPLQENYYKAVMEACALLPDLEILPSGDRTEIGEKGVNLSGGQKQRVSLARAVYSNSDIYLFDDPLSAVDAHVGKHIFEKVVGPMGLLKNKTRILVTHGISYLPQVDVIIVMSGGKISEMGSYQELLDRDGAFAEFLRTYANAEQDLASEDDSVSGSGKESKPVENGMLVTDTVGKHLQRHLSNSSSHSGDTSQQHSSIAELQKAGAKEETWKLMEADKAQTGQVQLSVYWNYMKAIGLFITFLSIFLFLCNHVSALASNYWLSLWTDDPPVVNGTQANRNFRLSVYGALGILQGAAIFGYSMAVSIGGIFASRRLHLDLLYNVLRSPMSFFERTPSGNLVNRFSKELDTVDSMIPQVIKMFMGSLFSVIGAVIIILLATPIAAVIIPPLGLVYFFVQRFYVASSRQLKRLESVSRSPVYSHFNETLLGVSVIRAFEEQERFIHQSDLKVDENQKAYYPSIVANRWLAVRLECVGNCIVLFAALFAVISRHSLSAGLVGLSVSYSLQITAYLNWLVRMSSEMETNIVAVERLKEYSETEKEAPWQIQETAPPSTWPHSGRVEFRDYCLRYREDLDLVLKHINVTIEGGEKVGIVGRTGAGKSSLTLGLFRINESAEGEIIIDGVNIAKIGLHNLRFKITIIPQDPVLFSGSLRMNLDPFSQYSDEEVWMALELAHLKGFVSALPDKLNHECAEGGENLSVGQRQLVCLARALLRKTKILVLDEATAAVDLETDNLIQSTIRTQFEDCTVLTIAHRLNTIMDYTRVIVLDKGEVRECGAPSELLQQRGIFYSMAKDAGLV
Method: (§1) Groups of wild-type, Abcc4^(−/−), Abcc1^(−/−), and Abcc1^(+/−) mice underwent a baseline PET scan with 6-bromo-7-[^11C]methylpurine at 30 min after i.p. injection of vehicle solution (PBS). […] In addition, groups of wild-type and Abcc1^(−/−) mice were used to determine the percentage of unchanged 6-bromo-7-[^11C]methylpurine in different tissues and fluids.
(§2) During all experimental procedures, animals were kept under isoflurane anesthesia. PET imaging was conducted on a microPET Focus220 scanner (Siemens Medical Solutions, Knoxville, TN, USA). […] Subsequently, 6-bromo-7-[^11C]methylpurine (29 ± 9 MBq in a volume of 0.1 ml, 0.17 ± 0.11 nmol) was administered as an i.v. bolus via the lateral tail vein, and a 90-min dynamic PET scan (energy window: 250–750 keV; timing window: 6 ns) was initiated at the start of radiotracer injection. […] Blood was centrifuged to obtain plasma and aliquots of blood and plasma were counted for radioactivity in a gamma counter (Wizard 1470; Perkin-Elmer, Waltham, MA, USA).
(§3) The PET data were sorted into 25 frames with a duration increasing from 5 s to 20 min. Fourier re-binning of the three-dimensional sinograms followed by a two-dimensional filtered back-projection with a ramp filter resulting in a voxel size of 0.4 × 0.4 × 0.796 mm^3 was used to reconstruct the PET data. Using AMIDE software, brain, right lung, left kidney, urinary bladder, liver, duodenum, intestine, and gall bladder were manually outlined on the PET images to derive concentration-time curves expressed in units of standardized uptake value (SUV = (radioactivity per g/injected radioactivity) × body weight). In addition, the left ventricle of the heart was outlined to obtain an image-derived blood curve. For all organs, the area under the concentration-time curve (AUC) from 0 to 90 min after radiotracer injection was calculated using Prism 7 software (GraphPad Software, La Jolla, CA, USA) and organ-to-blood AUC ratios were calculated. From the log-transformed concentration-time curves in blood, brain, lung, kidney, and liver, the elimination rate constant (kelimination) of radioactivity was determined by linear regression analysis from 17.5 to 80 min after radiotracer injection. A graphical analysis method (integration plot) was used to estimate the rate constant for transfer of radioactivity from blood into different organs (brain, kidney, and liver, kuptake, ml/min/g tissue) using data measured from 0.3 to 3.5 min after radiotracer injection, as described in detail before. Moreover, the rate constant for tubular secretion of radioactivity (kurine, min^−1) was determined from 12.5 to 65 min after radiotracer injection using integration plot analysis.

Abcc4 [4] = assay: 6-bromo-7-[^11C]methylpurine PET in Abcc4^(−/−) mice; type: in vivo; conditions: Abcc4^(−/−) vs wild-type mice
Method: as §1, §2
The PET data were sorted into 25 frames with a duration increasing from 5 s to 20 min. […] Using AMIDE software, brain, right lung, left kidney, urinary bladder, liver, duodenum, intestine, and gall bladder were manually outlined on the PET images to derive concentration-time curves expressed in units of standardized uptake value (SUV = (radioactivity per g/injected radioactivity) × body weight). […] From the log-transformed concentration-time curves in blood, brain, lung, kidney, and liver, the elimination rate constant (kelimination) of radioactivity was determined by linear regression analysis from 17.5 to 80 min after radiotracer injection. A graphical analysis method (integration plot) was used to estimate the rate constant for transfer of radioactivity from blood into different organs (brain, kidney, and liver, kuptake, ml/min/g tissue) using data measured from 0.3 to 3.5 min after radiotracer injection, as described in detail before. […]

[5] = Baseline 6-bromo-7-[^11C]methylpurine PET in vehicle-treated wild-type mice; type: in vivo
Method: as §1, §2, §3

Abcc1 [6] = target: T1, Abcc1; design: method as in PMID 23596979, PMID 18985052; conditions: cited from earlier work
[7] = MK571 concentrations in plasma and kidneys (HPLC); type: in vivo, mice; conditions: mouse, intraperitoneal, 300 mg/kg
Method: Assessment of Glutathione Conjugation […]
euthanized. Brain, liver, kidneys, urine and bile were collected. Blood was centrifuged to obtain […]
fluorescence detector (G1321 FLD). […]
obtain a clear supernatant. The resulting supernatants were injected into the HPLC column.
(5 µm, 100-4.6 mm) preceded by a Chromolith Performance RP-18 pre-column (5 µm, 10-4.6 mm), which was isocratically eluted with acetonitrile/methanol/0.1% aqueous acetic acid (30/20/50, v/v/v) at a flow rate of 2 ml/min. For fluorescence detection, an excitation wavelength of 250 nm and an emission wavelength of 410 nm were used. MK571 eluted with a retention time of 10.1 min. Linear calibration curves were generated by spiking drug-free mouse plasma […]
average correlation coefficient: > 0.999).

ABCC2 = test system: ABCC2; design: method as in PMID 12695538, PMID 10760098; conditions: in vitro ref 20, 21; read-out: IC50 for inhibition of substrate transport by ABCC2; cited from earlier work
ABCC4 [8] = test system: ABCC4; design: method as in PMID 12695538, PMID 10760098; conditions: in vitro ref 20, 21; read-out: IC50 for inhibition of substrate transport by ABCC4; cited from earlier work
[9] = Abcc1^(−/−) relative to wild-type mice ref 12, 13

Compound: CN(C)C(=O)CCS[C@H](SCCC(=O)O)c1cccc(/C=C/c2ccc3ccc(Cl)cc3n2)c1 (single isomer, unassigned) [(R)-enantiomer of MK571]
Apparent tissue unbound fraction [1]: 0.18

Compound: CN(C)C(=O)CCS[C@@H](SCCC(=O)O)c1cccc(/C=C/c2ccc3ccc(Cl)cc3n2)c1 (single isomer, unassigned) [(S)-enantiomer of MK571]
Apparent tissue unbound fraction [1]: 0.33

Compound: CN(C)C(=O)CCSC(SCCC(=O)O)c1cccc(/C=C/c2ccc3ccc(Cl)cc3n2)c1 (stereo not drawn) [MK571]
concentration at 120 min ([7]; C57BL/6J, kidney, Kidney unbound concentration of MK571, mice, from rat tissue unbound fraction of (R)-enantiomer): 98 µM | concentration at 120 min ([7]; C57BL/6J, kidney, Kidney unbound concentration of MK571, mice, from rat tissue unbound fraction of (S)-enantiomer): 180 µM | concentration at 120 min ([7]; C57BL/6J, kidney, Mean total MK571 concentration in the kidneys, wild-type mice, as restated in discussion): 544 µM | concentration at 120 min ([7]; kidney, MK571 concentration in kidneys, wild-type mice, approximately 120 min after 300 mg/kg i.p.): 544 ± 58 µM | concentration at 120 min ([7]; plasma, MK571 concentration in plasma, wild-type mice, approximately 120 min after 300 mg/kg i.p.): 251 ± 58 µM | IC50 (ABCC2): 4 µM | IC50 (ABCC4 [8]): 10 µM

The next lines start with results.

Plasma-to-blood ratio of radioactivity (Abcc1 [3]; Abcc1^(−/−) mice, venous blood at end of PET scan): 0.60 ± 0.04 | Decrease in kurine (Abcc1 [3]; Abcc1^(−/−) vs wild-type mice): 3.4 fold | Decrease in plasma-to-blood ratio of radioactivity (Abcc1 [3]; Abcc1^(−/−) vs wild-type mice): 2.4 fold | Increase in blood AUC (Abcc1 [3]; Abcc1^(−/−) vs wild-type mice): 3.0 fold | Increase in kuptake, liver (Abcc1 [3]; Abcc1^(−/−) vs wild-type mice): 1.6 fold | Reduction in kelimination, blood (Abcc1 [3]; Abcc1^(−/−) vs wild-type mice): 3.6 fold | Reduction in kelimination, lungs (Abcc1 [3]; Abcc1^(−/−) vs wild-type mice): 5.7 fold | Reduction in kelimination,brain (Abcc1 [3]; Abcc1^(−/−) vs wild-type mice): 9.4 fold | Reduction in kelimination,brain (Abcc1 [3]; heterozygous Abcc1^(+/−) vs wild-type mice): 1.3 fold | Decrease in kelimination, brain (Abcc4 [4]): 1.5 fold | Decrease in kelimination, kidneys (Abcc4 [4]): 1.4 fold | Decrease in kurine (Abcc4 [4]): 2.3 fold | kelimination,brain ([5]; vehicle-treated wild-type mice): 1.37 ± 0.27 h⁻¹ | kuptake,brain ([5]; vehicle-treated wild-type mice): 0.113 ± 0.028 ml/min/g brain | Extraction ratio, liver ([5]; vehicle-treated wild-type mice, assuming hepatic blood flow 1.0 ml/min/g tissue): 0.21 | Extraction ratio, kidneys ([5]; vehicle-treated wild-type mice, assuming renal blood flow 4.1 ml/min/g tissue): 0.18 | Plasma-to-blood ratio of radioactivity ([5]; wild-type mice, venous blood at end of PET scan): 1.46 ± 0.14
Compound: [11CH3]n1cnc2ncnc(Br)c21 [6-bromo-7-[^11C]methylpurine]
Unchanged 6-bromo-7-[^11C]methylpurine in tissues and fluids ([2]; mouse, in vivo, 15 min): In none of the investigated tissues and fluids unchanged 6-bromo-7-[^11C]methylpurine could be detected | Reduction in kelimination of radioactivity, brain (Abcc1 [6]; [9]): 9.3 fold | Reduction in kelimination of radioactivity, lungs (Abcc1 [6]; [9]): 17.2 fold | Conversion into glutathione conjugate in brain and lungs (Abcc1 [6]; mice, within 15 min after i.v. injection ref 12, 13): almost quantitatively converted into its glutathione conjugate

Percentage of S-(6-(7-[^11C]methylpurinyl))glutathione in bile ([2]; Abcc1^(−/−) mice): 79 ± 1% | Percentage of S-(6-(7-[^11C]methylpurinyl))glutathione in brain ([2]; Abcc1^(−/−) mice): 52 ± 0.4% | Percentage of S-(6-(7-[^11C]methylpurinyl))glutathione in kidney ([2]; Abcc1^(−/−) mice): 63 ± 1% | Percentage of S-(6-(7-[^11C]methylpurinyl))glutathione in liver ([2]; Abcc1^(−/−) mice): 32 ± 4% | Percentage of S-(6-(7-[^11C]methylpurinyl))glutathione in urine ([2]; Abcc1^(−/−) mice): 63 ± 3^a % | Percentage of S-(6-(7-[^11C]methylpurinyl))glutathione in plasma ([2]; Abcc1^(−/−) mice): 43 ± 2^a % | Percentage of S-(6-(7-[^11C]methylpurinyl))glutathione in bile ([2]; wild-type mice): 81 ± 5% | Percentage of S-(6-(7-[^11C]methylpurinyl))glutathione in brain ([2]; wild-type mice): 60 ± 8% | Percentage of S-(6-(7-[^11C]methylpurinyl))glutathione in kidney ([2]; wild-type mice): 58 ± 2% | Percentage of S-(6-(7-[^11C]methylpurinyl))glutathione in liver ([2]; wild-type mice): 37 ± 2% | Percentage of S-(6-(7-[^11C]methylpurinyl))glutathione in urine ([2]; wild-type mice): 77 ± 4% | Percentage of S-(6-(7-[^11C]methylpurinyl))glutathione in plasma ([2]; wild-type mice): 51 ± 2%
Compound: Cn1cnc2ncnc(SC[C@H](NC(=O)CC[C@H](N)C(=O)O)C(=O)NCC(=O)O)c21 [S-(6-(7-[^11C]methylpurinyl))glutathione]
